Calls of active or inactive are those of the source. The calls are words filed in the database; no cut-off is given here.
What was measured:
[1] = molecular target: T1, Serotonin 3 (5-HT3) receptor (Homo sapiens) (UniProt P46098+A5X5Y0+O95264+Q70Z44+Q8WXA8); assay: Intrinsic activity towards 5-hydroxytryptamine 3 receptor was determined by Benzold-Jarisch reflex (peripheral assay); ANT: antagonist; format: functional; details: filed as antagonist
[2] = molecular target: T1, Serotonin 3 (5-HT3) receptor (Homo sapiens); assay: Intrinsic activity towards CNS 5-hydroxytryptamine 3 receptor was determined; A: agonist; format: functional; details: filed as agonist
[3] = molecular target: Serotonin 3 (5-HT3) receptor; assay: Binding affinity towards 5-hydroxytryptamine 3 receptor; format: protein-complex assay
[4] = molecular target: T1, Serotonin 3 (5-HT3) receptor (Homo sapiens); assay: Intrinsic activity towards 5-hydroxytryptamine 3 receptor was determined by Benzold-Jarisch reflex (peripheral assay); PA: Partial agonist; format: functional; details: filed as partial agonist
[5] = tested on: Serotonin 3 (5-HT3) receptor; assay: Binding affinity of compound towards 5-hydroxytryptamine 3 receptor; NA: not active; format: protein-complex assay
[6] = molecular target: T1, Serotonin 3 (5-HT3) receptor (Homo sapiens); assay: Intrinsic activity towards CNS 5-hydroxytryptamine 3 receptor was determined; NA: not active; format: protein-complex assay
[7] = molecular target: T1, Serotonin 3 (5-HT3) receptor (Homo sapiens); assay: Intrinsic activity towards CNS 5-hydroxytryptamine 3 receptor was determined; ANT: Antagonist; format: functional; details: filed as antagonist
[8] = molecular target: T1, Serotonin 3 (5-HT3) receptor (Homo sapiens); assay: Intrinsic activity towards 5-hydroxytryptamine 3 receptor was determined by Benzold-Jarisch reflex (peripheral assay); A: agonist; format: functional; details: filed as agonist

SMILES: CN1CCN(c2cc3cc(F)ccc3n3cccc23)CC1
- Intrinsic activity [1]: Antagonist
- Intrinsic activity [2]: Agonist
- Ki [3]: 0.51 nM

SMILES: c1ccc2nc(N3CCNCC3)ccc2c1
- Intrinsic activity [2]: Agonist
- Intrinsic activity [4]: Partial agonist

SMILES: NC1CCN(c2cccc(Cl)n2)CC1
- Intrinsic activity [2]: Agonist
- Ki [3]: 103 nM

SMILES: CN1CCN(c2nc3ccccc3c3ccccc23)CC1
- Intrinsic activity [2]: Agonist
- Ki [3]: 1.9 nM

SMILES: CN1CCN(c2cc3cc(C(F)(F)F)ccc3n3cccc23)CC1
- Ki [5]: Not Active
- Intrinsic activity [1]: Antagonist
- Intrinsic activity [6]: inactive

SMILES: CN1CCN(c2nc3ccccc3c3c2CC2CCC3C2)CC1 (stereo not drawn)
- Intrinsic activity [7]: Antagonist
- Ki [3]: 0.83 nM

SMILES: O=[N+]([O-])c1ccc2nc(N3CCNCC3)ccc2c1 [6-NITROQUIPAZINE]
- Intrinsic activity [1]: Antagonist
- Ki [3]: 58 nM

SMILES: CN1CCN(c2nc3ccccc3c3c2CCCC3)CC1
- Ki [3]: 0.23 nM

SMILES: NCCc1c[nH]c2ccc(O)cc12
- Intrinsic activity [8]: Agonist
- Intrinsic activity [2]: Agonist

SMILES: N=C(N)Nc1cccc(Cl)c1
- Intrinsic activity [8]: Agonist

SMILES: N=C(N)NC(=N)Nc1ccccc1
- Intrinsic activity [8]: Agonist
- Intrinsic activity [2]: Agonist

SMILES: N=C(N)NC(=N)Nc1ccc2ccccc2c1
- Intrinsic activity [8]: Agonist

SMILES: Cc1[nH]c2ccc(O)cc2c1CCN
- Intrinsic activity [8]: Agonist
- Intrinsic activity [2]: Agonist

SMILES: N=C(N)NC(=N)Nc1cccc(Cl)c1
- Intrinsic activity [8]: Agonist
- Intrinsic activity [2]: Agonist

SMILES: Clc1ccc2ccc(N3CCNCC3)nc2c1
- Intrinsic activity [1]: Antagonist
- Ki [3]: 38 nM

SMILES: CN1CCN(c2nc3ccccc3n3cccc23)CC1
- Intrinsic activity [1]: Antagonist
- Intrinsic activity [2]: Agonist
- Ki [3]: 0.23 nM

SMILES: N=C(N)Nc1ccc2ccccc2c1
- Intrinsic activity [8]: Agonist

— ChEMBL document CHEMBL1135960 (Bioorg Med Chem Lett, 2002)
